# Laboratory results: patent publication USRE48097E1, “Cephem compounds, their production and use” (priority 2015, dated 2020)
# Like-named read-outs stand apart in the source and are kept apart here.
# Legend:
# Assay type in all cases: cell-based
# [1] = test system: S. pneumoniae ATCC 700673; assay: MIC against S. pneumoniae ATCC 700673; details: Table 2, S. pneumoniae ATCC 700673, Pen R
# From the text: (§1) Without limitation, the present cephem compounds alone, or in combination with one or more β-lactamase inhibitors, may provide improved antibacterial efficacy, particularly in antibiotic-resistant bacterial strains. It is believed that the present compounds may be structurally different from known compounds and, as a result, may be more basic in nature. It is an advantage that the present compounds may extend the spectrum of effective bacterial compounds, particularly against previously-resistant bacteria (e.g. ESKAPE organisms), and/or gram negative bacteria, without significant side effects. In a preferred embodiment, the present cephem compound may comprise reference compound ceftazidime, which may be used alone, or in combination with one or more β-lactamase inhibitors, such as NXL-104. As shown, the foregoing composition was tested for minimum inhibitory concentration (MIC, μg/mL) against bacteria listed in Tables 2-3.
# [2] = test system: S. pneumoniae ATCC 6301; assay: MIC against S. pneumoniae ATCC 6301; details: Table 2, S. pneumoniae ATCC 6301, Pen S
# From the text: as §1
# [3] = test system: S. pneumoniae 2389; assay: MIC against S. pneumoniae 2389; details: Table 2, S. pneumoniae 2389, Pen R
# From the text: as §1
# [4] = test system: S. pneumoniae 2492; assay: MIC against S. pneumoniae 2492; details: Table 2, S. pneumoniae 2492, Pen R
# From the text: as §1
# [5] = test system: S. pneumoniae 2493; assay: MIC against S. pneumoniae 2493; details: Table 2, S. pneumoniae 2493, Pen R
# From the text: as §1
# [6] = test system: S. pneumoniae 2404; assay: MIC against S. pneumoniae 2404; details: Table 2, S. pneumoniae 2404, Pen S
# From the text: as §1
# [7] = test system: S. pneumoniae 2405; assay: MIC against S. pneumoniae 2405; details: Table 2, S. pneumoniae 2405, Pen S
# From the text: as §1
# [8] = test system: S. pneumoniae 2406; assay: MIC against S. pneumoniae 2406; details: Table 2, S. pneumoniae 2406, Pen S
# From the text: as §1
# [9] = test system: E. cloacae 551; assay: MIC against E. cloacae 551; details: Table 2, E. cloacae 551, Caz R, IMP S
# From the text: as §1
# [10] = test system: E. cloacae 552; assay: MIC against E. cloacae 552; details: Table 2, E. cloacae 552, Caz S, IMP S
# From the text: as §1
# [11] = test system: C. freundii 15; assay: MIC against C. freundii 15; details: Table 2, C. freundii 15, Caz R, IMP S
# From the text: as §1
# [12] = test system: C. freundii 579; assay: MIC against C. freundii 579; details: Table 2, C. freundii 579, Caz R, IMP S
# From the text: as §1
# [13] = test system: K. pneumoniae 4106; assay: MIC against K. pneumoniae 4106; details: K. pneumoniae 4106, KPC-3, TEM-1, SHV-12, SHV-141
# Procedure: (§2) As shown, the foregoing composition was tested for minimum inhibitory concentration (MIC, μg/mL) against bacteria listed in Tables 2-3.
# [14] = test system: K. pneumoniae 4108; assay: MIC against K. pneumoniae 4108; details: K. pneumoniae 4108, KPC-3, TEM-166, SHV-12, SHV-141
# Procedure: as §2
# [15] = test system: K. pneumoniae 4109; assay: MIC against K. pneumoniae 4109; details: Table 2, K. pneumoniae 4109, SHV-1, SHV-12
# From the text: as §1
# [16] = test system: K. pneumoniae 2689; assay: MIC against K. pneumoniae 2689; details: K. pneumoniae 2689, KPC-2
# Procedure: as §2
# [17] = test system: K. pneumoniae 2697; assay: MIC against K. pneumoniae 2697; details: Table 2, K. pneumoniae 2697, IMP-4
# From the text: as §1
# [18] = test system: E. coli 102; assay: MIC against E. coli 102; details: Table 2, E. coli 102, TEM-1
# From the text: as §1
# [19] = test system: K. baumanii 4095; assay: MIC against K. baumanii 4095; details: Table 2, K. baumanii 4095, OXA-48
# From the text: as §1
# [20] = test system: E. coli 2668; assay: MIC against E. coli 2668; details: Table 2, E. coli 2668, OXA-48
# From the text: as §1
# [21] = test system: P. aeruginosa 2573; assay: MIC against P. aeruginosa 2573; details: Table 2, P. aeruginosa 2573, OXA-10 (Class D)
# From the text: as §1
# [22] = test system: E. coli 4103; assay: MIC against E. coli 4103; details: Table 3, E. coli 4103, KPC-2, TEM-1, CMY-type
# Procedure: as §2
# [23] = Table 2, in combination with NXL-104
# [24] = Table 3, in combination with NXL-104
# [25] = Streptococcus pneumoniae, alone, read-out: MIC
# [26] = Enterobacter cloacae, alone, read-out: MIC
# [27] = Citrobacter freundii, alone, read-out: MIC
# [28] = Klebsiella pneumoniae, alone, read-out: MIC
# [29] = Escherichia coli, alone, read-out: MIC
smiles,measurement,setting,value
"CC(C)(O/N=C(\C(=O)N[C@@H]1C(=O)N2C(C(=O)[O-])=C(C[n+]3ccccc3)CS[C@H]12)c1csc(N)n1)C(=O)O [CAZ, ceftazidime, reference compound]",MIC,[1]; alone,16.00 µg/mL
same,MIC,[1]; in combination with NXL-104,8.00 µg/mL
same,MIC,[2]; alone,0.12 µg/mL
same,MIC,[2]; in combination with NXL-104,0.12 µg/mL
same,MIC,[3]; alone,16.00 µg/mL
same,MIC,[3]; in combination with NXL-104,16.00 µg/mL
same,MIC,[4]; alone,8.00 µg/mL
same,MIC,[4]; in combination with NXL-104,8.00 µg/mL
same,MIC,[5]; alone,16.00 µg/mL
same,MIC,[5]; in combination with NXL-104,16.00 µg/mL
same,MIC,[6]; alone,32.00 µg/mL
same,MIC,[6]; in combination with NXL-104,32.00 µg/mL
same,MIC,[7]; alone,0.25 µg/mL
same,MIC,[7]; in combination with NXL-104,0.25 µg/mL
same,MIC,[8]; alone,0.12 µg/mL
same,MIC,[8]; in combination with NXL-104,0.12 µg/mL
same,MIC,[9]; alone,16.00 µg/mL
same,MIC,[9]; in combination with NXL-104,4.00 µg/mL
same,MIC,[10]; alone,0.50 µg/mL
same,MIC,[10]; in combination with NXL-104,0.25 µg/mL
same,MIC,[11]; alone,8.00 µg/mL
same,MIC,[11]; in combination with NXL-104,2.00 µg/mL
same,MIC,[12]; alone,4.00 µg/mL
same,MIC,[12]; in combination with NXL-104,2.00 µg/mL
same,MIC,"[13]; Table 2, alone",16.00 µg/mL
same,MIC,[13]; [23],4.00 µg/mL
same,MIC,"[13]; Table 3, alone",>32 µg/mL
same,MIC,[13]; [24],8 µg/mL
same,MIC,"[14]; Table 2, alone",16.00 µg/mL
same,MIC,[14]; [23],4.00 µg/mL
same,MIC,"[14]; Table 3, alone",>32 µg/mL
same,MIC,[14]; [24],4 µg/mL
same,MIC,[15]; alone,2.00 µg/mL
same,MIC,[15]; in combination with NXL-104,0.50 µg/mL
same,MIC,"[16]; Table 2, alone",32.00 µg/mL
same,MIC,[16]; [23],4.00 µg/mL
same,MIC,"[16]; Table 3, alone",>32 µg/mL
same,MIC,[16]; [24],4 µg/mL
same,MIC,[17]; alone,8.00 µg/mL
same,MIC,[17]; in combination with NXL-104,2.00 µg/mL
same,MIC,[18]; alone,0.12 µg/mL
same,MIC,[18]; in combination with NXL-104,0.12 µg/mL
same,MIC,[19]; alone,0.50 µg/mL
same,MIC,[19]; in combination with NXL-104,0.50 µg/mL
same,MIC,[20]; alone,1.00 µg/mL
same,MIC,[20]; in combination with NXL-104,0.50 µg/mL
same,MIC,[21]; alone,8.00 µg/mL
same,MIC,[21]; in combination with NXL-104,8.00 µg/mL
same,MIC,[22]; alone,>32 µg/mL
same,MIC,[22]; in combination with NXL-104,16 µg/mL
"CC(C)(O/N=C(\C(=O)N[C@@H]1C(=O)N2C(C(=O)[O-])=C(C[n+]3ccc4c(ccn4Cc4ccc(C(=N)N)cc4)c3)CS[C@H]12)c1csc(N)n1)C(=O)O [Ex-1, (6R,7R)-7-{[(2Z)-2-(2-Amino-1,3-thiazol-4-yl)-2-{[(2-carboxypropan-2-yl)oxy]imino}acetyl]-amino}-3-{[1-(4-carbamimidoylbenzyl)-1H-pyrrolo[3,2-c]pyridin-5-ium-5-yl]methyl}-8-oxo-5-thia-1-azabicyclo[4.2.0]oct-2-ene-2-carboxylate]",MIC,"[1]; Streptococcus pneumoniae, ATCC700673, alone, read-out: MIC",2 µg/mL
same,MIC,"[2]; Streptococcus pneumoniae, ATCC6301, alone, read-out: MIC",≤ 0.06 µg/mL
same,MIC,[3]; [25],4 µg/mL
same,MIC,[4]; [25],2 µg/mL
same,MIC,[5]; [25],4 µg/mL
same,MIC,[6]; [25],0.25 µg/mL
same,MIC,[7]; [25],≤ 0.06 µg/mL
same,MIC,[8]; [25],≤ 0.06 µg/mL
same,MIC,[9]; [26],32 µg/mL
same,MIC,[10]; [26],0.12 µg/mL
same,MIC,[11]; [27],16 µg/mL
same,MIC,[12]; [27],4 µg/mL
same,MIC,"[13]; Klebsiella pneumoniae, 4106, Table 2, alone, read-out: MIC",8 µg/mL
same,MIC,"[13]; Klebsiella pneumoniae, 4106, Table 3, alone, read-out: MIC",32 µg/mL
same,MIC,"[14]; Klebsiella pneumoniae, 4108, Table 2, alone, read-out: MIC",4 µg/mL
same,MIC,"[14]; Klebsiella pneumoniae, 4108, Table 3, alone, read-out: MIC",32 µg/mL
same,MIC,[15]; [28],2 µg/mL
same,MIC,"[16]; Klebsiella pneumoniae, 2689, Table 2, alone, read-out: MIC",8 µg/mL
same,MIC,"[16]; Klebsiella pneumoniae, 2689, Table 3, alone, read-out: MIC",16 µg/mL
same,MIC,[17]; [28],4 µg/mL
same,MIC,[18]; [29],≤ 0.06 µg/mL
same,MIC,"[19]; alone, read-out: MIC",0.5 µg/mL
same,MIC,[20]; [29],1 µg/mL
same,MIC,"[21]; Pseudomonas aeruginosa, alone, read-out: MIC",4 µg/mL
same,MIC,[22]; [29],> 32 µg/mL
